Patent US20240023534A1, “Devices, Compositions and Methods for Insect Control” (Agriculture Victoria Services PTY LTD, priority 2020, published 2024)
Entries after “also recorded” stand apart in the source; their conditions may differ.

Legend:
[1] = test system: C. davidsoni; experiment: GC-EAD of beetle antennae to Pichia kluyveri headspace volatiles; conditions: female and male adults, P. kluyveri headspace volatiles
Excerpt: FIG. 6. GC-EAD responses of female (♀) and male (♂) C. davidsoni adults to headspace volatiles (black, FID chromatogram) of the fruit yeast Pichia kluyveri. […] IS=Internal standard, IS1=n-octane, IS2=Nonyl acetate.

[2] = test system: Carpophilus truncatus; experiment: Cage dual-choice bioassay, co-attractant with one ingredient suppressed; assay type: in vivo; conditions: for attractiveness of commercial co-attractant in the absence of the compound / role of the compound: test solution lacking one ingredient vs CL in 45% ethanol, fifty beetles
Description: FIG. 9. Boxplots representing the results of lab-conducted cage dual-choice assays on Carpophilus truncatus responses to odours. Between 50 and 100 beetles were simultaneously exposed to a solution of co-attractant […] one ingredient at a time was suppressed (treatments). The attraction index was calculated as follows: (number of beetles in test solution−number of beetles in control)/(total number of beetles). […] Line in the boxplots correspond to the median, top and bottom of the boxplots represent the 75th and 25th percentiles respectively while error bars depict the 5th and 95th percentiles. White dots are outliers. n correspond to the replication of each experiments. p values result from paired t-tests and stars indicate the level of statistical significance.
Fifty beetles were simultaneously exposed to a solution of co-attractant (control) and a solution of co-attractant from which one additive at a time was suppressed (treatments, see table 4). The attraction index was calculated as follows: (number of beetles in test solution—number of beetles in control)/(total number of beetles).

[3] = Gravimetric release rate and longevity of lure constituents in LDPE sachets; assay type: physicochemical; conditions: for Est. long. / Release rate: compound on wick in LDPE sachet, thickness, size, load per Table 1
Description: The release rates of co-attractant components formulated in low density polyethylene (LDPE) sachets were investigated (FIG. 1).
The release rate and theoretical longevity of the lure constituents in sachets were tested in gravimetric experiments. Data were used to determine the optimal sachet thickness, size (surface area) and estimated longevity of individual components (FIG. 2).
A fixed volume (1 ml) of each lure constituent was individually loaded in 50 cm 2 of different thicknesses (50, 100, 150 and 200 μm). Sachets were weighed daily for the first 5 days and later at greater time intervals. Release rates of the compounds through different sachet thicknesses were inferred using sachet weight loss over time (FIG. 2). Only the linear part of the weight loss curve was considered in the calculations of release rates. The maximum estimated longevity was deduced from the calculated release rate and corrected based on adjusted sachet size and volume of chemical loaded.

[4] = Release of compounds from the commercial co-attractant solution; assay type: physicochemical; conditions: for Release rate (commercial solution): compound in commercial co-attractant solution; for duration of release in the current solution: current co-attractant solution
[5] = Sachet size, thickness, release rate and lure longevity studies (Table 3, based on GC-MS analysis); assay type: physicochemical; conditions: for Est. long. / Release rate: LDPE sachet per Table 3, based on GC-MS analysis
Description: Studies determining optimal sachet size and thickness, lure concentration, release rates and lure longevity were performed as described in Table 3.

[6] = test system: C. davidsoni; experiment: Field trial of synthetic blends in peach orchard (Example 6); assay type: in vivo; conditions: CL+2PA, CL+IA, CL+IA+2PA vs CL; five weeks, N=6
Description: C. davidsoni catches using prototype co-attractant solutions in a stone fruit orchard (Shepparton, VIC). CL corresponds to the control (original Carpophilus Lure co-attractant), CL+IA (co-attractant+Isopentyl Acetate), CL+PA (co-attractant+2-Phenethyl acetate) and CL+IA+PA (co-attractant+Isopentyl Acetate+2-Phenethyl acetate). […] Number of replicates per treatment N=6.
Synthetic blends consisting of the combination of the existing carpophilus lure with two new potential yeast attractants; namely Isopentyl acetate and 2-phenylethyl acetate; were formulated based on their respective ratio to ethyl acetate (Table 2) and tested in the field.
Field trials were conducted in a peach orchard in Invergordon (Victoria). Treatments included the original carpophilus lure (CL: control), the original lure combined with Isopentyl acetate (CL+IA) or with 2-phenylethylacetate (CL+2PA) or both (CL+IA+2PA). Six replicates of each odour blend were placed in black funnel traps held on pickets at 1.5 m height, arranged in randomized transects. Beetles were collected and synthetic blends replaced weekly over a 5-week period.
These compounds were tested either separately or together in the existing Carpophilus co-attractant and compared with the original co-attractant in the field. The trial was conducted over a five week period during which the beetles were collected and the lure solutions renewed weekly.

[7] = test system: C. truncatus; experiment: GC-EAD responses to W. rabaulensis odour; conditions: W. rabaulensis headspace odour
Description: FIG. 10. […] 1-Acetaldehyde. 2-Ethanol. 3-Isobutanol. 4-Isopentyl alcohol. 5-2-Methyl butanol. 6-Isobutyl acetate. 7-Isopentyl acetate.
As co-attractants are derived from microbial odours, beetle attraction towards yeast odours isolated from the insect's gut was tested (Farrukh Baig, PhD thesis, 2020). […] Synthetic blends of the yeast odours were developed and field tested.

| SMILES | GC-EAD antennal response [1] | attractiveness of commercial co-attractant in the absence of the compound / role of the compound [2] | Est. long. [3] | Release rate [3] | Release rate (commercial solution) [4] | Est. long. [5] | Release rate [5] | also measured |
| --- | --- | --- | --- | --- | --- | --- | --- | --- |
| CC(=O)OCc1ccco1 [2-furanmethanol acetate] | consistent physiological responses | – | – | – | – | – | – | – |
| CCC(C)CO (stereo not shown) [2-methyl-butanol] | consistent physiological responses | significantly more attractive | 200+ days | 4.3 mg/day | 0.6 mg/day | 200+ days | 4.3 mg/day | – |
| CC(=O)OCCc1ccccc1 [2-phenylethylacetate] | consistent physiological responses | – | – | – | – | 70+ days | 28 mg/day | GC-EAD antennal response ([1]; listed as 2-phenethyl acetate): strong sensitivity; longevity in sachets ([5]; dispensed in sachets): over 70 days; effect on beetle capture of adding the compound to the original co-attractant (CL) [6]: significantly more beetles |
| CCC(=O)OCCc1ccccc1 [2-phenylethylpropionate] | consistent physiological responses | – | – | – | – | – | – | – |
| CCCCOC(C)=O [Butyl acetate] | consistent physiological responses | – | – | – | – | – | – | – |
| CCCCCCCC(=O)OCC [Ethyl octanoate] | consistent physiological responses | – | – | – | – | – | – | – |
| CC(=O)OCC(C)C [Isobutyl acetate] | consistent physiological responses | – | – | – | – | – | – | antennal responses (GC-EAD) [7]: strong antennal responses |
| CC(C)CO [Isobutyl alcohol] | consistent physiological responses | seem to not influence | 200+ days | 4.9 mg/day | 2.9 mg/day | 200+ days | 4.9 mg/day | – |
| CC(=O)OCCC(C)C [Isopentyl acetate] | consistent physiological responses; also recorded: strong sensitivity | – | – | – | – | – | – | antennal responses (GC-EAD) [7]: strong antennal responses; effect on beetle capture of adding the compound to the original co-attractant (CL) [6]: reduce lure attractiveness |
| CC(C)CCO [Isopentyl alcohol] | consistent physiological responses | significantly less attractive | 300 days | 3.4 mg/day | 3.3 mg/day | 300 days | 3.4 mg/day | effect of increased concentrations on lure efficacy ([2]; further cage bioassay experiments): increase in lure efficacy |
| CC(=O)OCc1ccccc1 [Phenylmethyl acetate] | consistent physiological responses | – | – | – | – | – | – | – |
| CCCOC(C)=O [Propyl acetate] | consistent physiological responses | – | – | – | – | – | – | – |
| CC=O [acetaldehyde] | – | tend to act as an attractant | 7 days | 50 mg/day | 43 mg/day | 40 days | 50 mg/day | duration of release when applied in sachets ([3]; LDPE sachets): 1 week; duration of release in the current solution [4]: 1 days |
| CCO [ethanol] | – | significantly less attractive | – | – | – | – | – | permeation through the LDPE layers ([3]; LDPE sachets): limited permeation; maximum release rate achievable with thin sachets ([3]; thin LDPE sachets, lab experiments): ~25 mg/day; ethanol emission rates in the commercial lure ([4]; commercial lure): 2.5 g/day |
| CCOC(C)=O [ethyl acetate] | consistent physiological responses | seem to not influence | 15 days | 136 mg/day | 110 mg/day | 15 days | 136 mg/day | duration of release when applied in sachets ([3]; LDPE sachets): 1 week; duration of release in the current solution [4]: 1 days |
| CCC1CCC(=O)O1 (stereo not shown) [γ-caprolactone] | consistent physiological responses | – | – | – | – | – | – | – |
